Each block holds one compound with its values, some of them ahead of it.
Legend:
C. reinhardtii = assay: Effect of copper on activity of metal-hydrazone complexes: growth inhibition of C. reinhardtii in TAP Cu minus / TAP Cu plus medium (Example 13); format: cell-based, Chlamydomonas reinhardtii; details: for % Inhn. Minus Copper Observed / % Inhn. Plus Copper Observed: C. reinhardtii growth inhibition; for % Inhn. Minus Copper Observed: TAP Cu minus medium; for % Inhn. Plus Copper Observed / % Inhn. Plus Copper Predicted: TAP Cu plus medium; for % Inhn. Plus Copper Predicted: calculated by Colby formula from minus-copper result and inhibition by copper chloride alone
Method: In vitro toxicity assays against C. reinhardtii CC-1928 (wild type mt+137c green in dark subclone) obtained from the Chlamydomonas Resource Center at Duke University were conducted using TAP liquid growth medium described by Gorman and Levine Proc. Natl. Acad. Sci. USA 1965, 54, 1665-1669 except that CuSO4.5H2O, normally included as a component of Hutner's trace element stock solution (Hutner et al. Proc. Am. Philos. Soc. 1950, 94, 152-170), was omitted. The TAP medium lacking Cu (TAP Cu minus) was prepared by adding 400 mg NH4Cl, 10 mL of 100× Tris-Acetate (242 g Tris-base and 100 mL glacial acetic acid in 1000 mL milli Q water), and 8.3 mL of 120.5× phosphate buffer (14.34 g K2HPO4 and 7.26 g KH2PO4 in 1000 mL milli Q water) to milli Q water to make a total volume of 1 liter. The medium was treated with 0.5 g Chelex 100 resin (Bio-Rad Analytical grade, 50-100 mesh, sodium form, cat#142-2822) by stirring at room temperature for 1 hour. 900 mL were decanted and 45.9 mg of CaCl2.2H2O, 90 mg of MgSO4.7H2O and 0.9 mL Hutner's trace elements lacking CuSO4.5H2O were added and the solution was filter-sterilized. Medium containing copper (TAP Cu plus) was prepared by adding CuCl2.2H2O to the TAP Cu minus medium at 20 μM. Test compounds were dissolved in dimethylsulfoxide (DMSO) at 2 mg/mL then dilutions in TAP Cu minus and TAP Cu plus media were prepared in sterilized microcentrifuge tubes at 2 μg/mL. 100 μL aliquots of diluted compound were dispensed into flat-bottomed 96-well microtiter plates. C. reinhardtii was maintained under 12 h of light on TAP agar plates at 18° C. A loopful of cells was added to 50 mL of TAP Cu minus medium and the culture incubated with shaking at 200 rpm at 27° C. for 24 h. The culture (10 to 20 mL aliquot) was centrifuged in a bench centrifuge at 2000 rpm for 2 min. The resulting cell pellet was resuspended in 5 mL sterile milli Q water (which had been treated with Chelex 100 resin using 0.5 g resin per liter of water by stirring at room temperature for 1 h), and recentrifuged. The cells were resuspended in TAP Cu minus medium, and the suspension adjusted to 2×10^5 spores per mL. Microtiter plates containing compounds as described above were inoculated with 100 μL of this cell suspension and the plates incubated at 27° C. for 48 h before assessing algal growth by measuring light scattering in a NepheloStar plate-reader. Growth inhibition was determined by comparing growth in the presence of test compound with growth in control wells lacking test compound. The effect of copper on activity of metal-hydrazone complexes towards C. reinhardtii was evaluated by comparing their activity in TAP Cu minus and TAP Cu plus media as described in Example 10 (compound concentrations were selected which gave low inhibition in TAP Cu minus medium). Growth inhibition was determined by comparing growth in the presence of test compound with growth in control wells lacking test compound. Results for growth inhibition by test compounds in TAP Cu plus medium (% Inhn Plus Copper Observed) were compared with predicted values (% Inhn Plus Copper Predicted) that were calculated using the formula set forth by S. R. Colby in Weeds 1967, 15, 20-22 based on results obtained for the same compounds in TAP Cu minus medium (% Inhn Minus Copper Observed) and the inhibition attributed to copper chloride alone, as determined by comparing growth in TAP Cu minus and TAP Cu plus media without any test compound across experiments.

[1] = C. reinhardtii, test concn. 0.5 μg/mL
[2] = C. reinhardtii, test concn. 0.25 μg/mL

SMILES: O=C(N/N=C/c1cc(Cl)cc(Cl)c1O)c1ccccc1.O=C(N/N=C/c1cc(Cl)cc(Cl)c1O)c1ccccc1.[Cl-].[Cl-].[Cu+2] [Compound 76]
% Inhn. Minus Copper Observed (C. reinhardtii; test concn. 0.5 μg/mL): 3%
% Inhn. Plus Copper Observed (C. reinhardtii; test concn. 0.5 μg/mL): 89%
% Inhn. Plus Copper Predicted (C. reinhardtii; [1]): −10%

melting point: 262 to 264 °C
SMILES: C/C(=N\NC(=O)c1ccc(C)cc1)c1cc(Cl)cc(Cl)c1O [Compound 26]

melting point: 249 to 252 °C
SMILES: O=C(N/N=C/c1ccc(Cl)c(Cl)c1O)c1ccccc1 [Compound 21]

melting point: 257 to 260 °C
SMILES: O=C(N/N=C/c1cccc(Cl)c1O)c1ccc(Cl)cc1 [Compound 52]

melting point: 260 to 262 °C
SMILES: C/C(=N\NC(=O)c1ccc(Cl)cc1)c1cc(Cl)cc(Cl)c1O [Compound 12]

SMILES: O=C(NN=Cc1cc(Cl)cc(Cl)c1O)c1ccccc1.O=C(NN=Cc1cc(Cl)cc(Cl)c1O)c1ccccc1.[Cl-].[Cl-].[Zn+2] [Compound 78]
% Inhn. Minus Copper Observed (C. reinhardtii; test concn. 0.5 μg/mL): −9%
% Inhn. Plus Copper Observed (C. reinhardtii; test concn. 0.5 μg/mL): 87%
% Inhn. Plus Copper Predicted (C. reinhardtii; [1]): −22%

melting point: 221 to 223 °C
SMILES: C/C(=N\NC(=O)c1cccc(C)c1)c1cc(Cl)cc(Cl)c1O [Compound 25, 3-methyl-benzoic acid [1-(3,5-dichloro-2-hydroxyphenyl)-ethylidene]-hydrazide]

SMILES: O=C(N/N=C/c1cc(Cl)cc(Cl)c1O)c1ccccc1.O=C(N/N=C/c1cc(Cl)cc(Cl)c1O)c1ccccc1.O=S(=O)([O-])[O-].[Cu+2] [Compound 74]
% Inhn. Minus Copper Observed (C. reinhardtii; test concn. 0.25 μg/mL): −9%
% Inhn. Plus Copper Observed (C. reinhardtii; test concn. 0.25 μg/mL): 82%
% Inhn. Plus Copper Predicted (C. reinhardtii; [2]): −22%

SMILES: O=C(N/N=C/c1cc(Cl)cc(Cl)c1O)c1ccccc1.O=C(N/N=C/c1cc(Cl)cc(Cl)c1O)c1ccccc1.[Cl-].[Cl-].[Mn+2] [Compound 77]
% Inhn. Minus Copper Observed (C. reinhardtii; test concn. 0.5 μg/mL): −5%
% Inhn. Plus Copper Observed (C. reinhardtii; test concn. 0.5 μg/mL): 93%
% Inhn. Plus Copper Predicted (C. reinhardtii; [1]): −18%

melting point: 233 to 236 °C
SMILES: O=C(N/N=C/c1cc(C(F)(F)F)cc(C(F)(F)F)c1O)c1ccc(Cl)cc1 [Compound 32]

SMILES: CC(=O)[O-].CC(=O)[O-].O=C(N/N=C/c1cc(Cl)cc(Cl)c1O)c1ccccc1.O=C(N/N=C/c1cc(Cl)cc(Cl)c1O)c1ccccc1.[Cu+2] [Compound 73]
% Inhn. Minus Copper Observed (C. reinhardtii; test concn. 0.25 μg/mL): 23%
% Inhn. Plus Copper Observed (C. reinhardtii; test concn. 0.25 μg/mL): 87%
% Inhn. Plus Copper Predicted (C. reinhardtii; [2]): 10%

SMILES: [Cl][Cu][Cl] [CuCl2, Copper chloride, reference compound]
% Inhn. attributed to copper chloride alone (C. reinhardtii; C. reinhardtii, CuCl2 10 μM, growth in TAP Cu plus vs TAP Cu minus medium without test compound, across experiments): −12.9%

melting point: 236 to 238 °C
SMILES: O=C(N/N=C/c1c(C(F)(F)F)ccc(Cl)c1O)c1ccc(Cl)cc1 [Compound 56]

melting point: 225 to 226 °C
SMILES: O=C(N/N=C/c1cc(Cl)cc(C(F)(F)F)c1O)c1ccccc1 [Compound 27]

SMILES: CC(=O)[O-].CC(=O)[O-].O=C(N/N=C/c1cc(Cl)cc(Cl)c1O)c1ccccc1.[Cu+2] [Compound 72]
% Inhn. Minus Copper Observed (C. reinhardtii; test concn. 0.25 μg/mL): 79%
% Inhn. Plus Copper Observed (C. reinhardtii; test concn. 0.25 μg/mL): 83%
% Inhn. Plus Copper Predicted (C. reinhardtii; [2]): 66%

melting point: 271 to 273 °C
SMILES: O=C(N/N=C/c1c(Cl)ccc(Cl)c1O)c1ccc(Cl)cc1 [Compound 45]

SMILES: O=C(N/N=C/c1cc(Cl)cc(Cl)c1O)c1ccccc1.[Cl-].[Cl-].[Cu+2] [Compound 75]
% Inhn. Minus Copper Observed (C. reinhardtii; test concn. 0.25 μg/mL): 18%
% Inhn. Plus Copper Observed (C. reinhardtii; test concn. 0.25 μg/mL): 59%
% Inhn. Plus Copper Predicted (C. reinhardtii; [2]): 5%

— patent publication US8906829B2, “Synergistic algicidal compositions including hydrazone derivatives and copper” (Dow AgroSciences LLC, priority 2010, dated 2014)
